According to patent publication US20250201957A1, “SEPARATION RECOVERY METHOD OF METAL IONS AND ACIDIC METAL EXTRACTANT” (FUJIFILM Corporation, priority 2022, published 2025):
Read-outs that look alike come from different tables or passages of the source.

Assay: pKa of metal extractant by neutralization titration
Assay type: physicochemical
Description: The acidic metal extractant includes two or more coordinating functional groups, and at least one of the coordinating functional groups includes a carboxy group or each of acidic coordinating functional groups where one of R^C's represents a hydrogen atom. In the present invention, the acidic metal extractant is an acidic metal extractant for dissociating hydrogen ions (H^+) and can be defined by an acid dissociation constant pKa. For example, an acidic metal extractant having pkA of 0.1 to 12 is preferable, an acidic metal extractant having pkA of 0.5 to 12 is more preferable, and an acidic metal extractant having pkA of 1 to 8 is still more preferable. In the present invention, the pKa is a value measured by neutralization titration.
Regarding the synthesized or prepared acidic metal extractant, the molecular weight and the pKa calculated using the above-described method are shown in Table 1-2.

Molecule	pKa (read-out: pKa)	pKa
CCCCC(CC)COP(=O)(O)CCCP(=O)(O)OCC(CC)CCCC (stereo not shown) [E-1]	1.1	–
CCCCC(CC)COP(=O)(O)CC(CC)CCCC (stereo not shown) [PC-88A, mono-2-ethylhexyl (2-Ethylhexyl)phosphonate, reference compound]	4.6	–
CCCCC(CC)COP(=O)(O)CP(=O)(OCC)OCC(CC)CCCC (stereo not shown) [E-3]	2.1	–
CCCCC(CC)COP(=O)(O)C(C)(O)P(=O)(O)OCC(CC)CCCC (stereo not shown) [E-8]	1.1	–
CCCCCCCCOP(=S)(S)CP(=S)(S)OCCCCCCCC (stereo not shown) [E-6]	0.3	–
CCCCC(CC)COP(=O)(O)CCP(=O)(O)OCC(CC)CCCC (stereo not shown) [E-5]	0.9	–
CCCCC(CC)COP(=O)(O)CP(=O)(O)OCC(CC)CCCC (stereo not shown) [E-2]	0.8	–
CCCCC(CC)COP(=O)(CP(=O)(OCC)OCC(CC)CCCC)OCC (stereo not shown) [E-7]	–	None
Versatic acid 10 [VA-10, reference compound]	–	7.9
CCCCC(CC)CC(CC(CC)CCCC)(C(=O)O)C(=O)O (stereo not shown) [E-4]	6.5	–
